Measured values published in patent US10640452B2, “Branched trialkyl quaternary ammonium compounds” (Eastman Chemical Company, priority 2018, dated 2020).

Columns and labels:
Candida albicans = assay: Antimicrobial screening, microplate dilution assay (MIC) and agar spotting (MLC); assay type: cell-based; settings: Candida albicans (yeast); for MIC < 10%: lowest concentration with growth less than 10% of control; for MIC < 10% / MIC < 50%: approx. 24 h, 32° C.; for MIC < 50%: lowest concentration with growth less than 50% of control; for MLC: minimum lethal concentration, absence of growth on agar
Description: (§1) The minimum inhibitory concentration (MIC) and the minimum lethal concentration (MLC) of the chemicals were determined using a microplate dilution assay. Quats were provided as aqueous solutions, while Triclosan and Chloroxylenol were provide as powders which were first dissolved at 5 weight percent in absolute ethanol. A two-fold serial dilution series of each test chemical was prepared in Trypticase Soy Broth at 20% of the standard concentration (TSB20) and in Sabouraud Dextrose Broth at 20% of the standard concentration (SDB20) in 96-well micro-titer plates. A total of 10 dilutions were prepared and four replicate tests were performed for each dilution. […] Control solutions containing only media were included for each plate. Suspensions of Staphylococcus aureus, Escherichia coli, and Candida albicans were prepared from one-day old agar plate cultures in Butterfields Phosphate Diluent to a concentration of approximately 10^7 to 10^8 cells per milliliter. Each test well was inoculated with the diluted culture suspensions at a concentration of 10^3 to 10^4 cells per well and then incubated at 32° C. with shaking at 150 rpm for approximately 24 hours, after which the optical density of each well was determined spectrophotometrically at 600 nm. Wells containing uninoculated media without test chemical were included in each plate as negative controls and, following inoculation, as positive controls.
(§2) Selected wells at or below the MIC were tested for MLC by spotting three microliters from each replicate well onto Trypticase Soy agar for S. aureus and E. coli, or Sabouraud Dextrose agar for C. albicans.

Staphylococcus aureus = assay: as above; assay type: cell-based; settings: Staphylococcus aureus (Gram pos bacteria); for MIC < 10%: lowest concentration with growth less than 10% of control; for MIC < 10% / MIC < 50%: approx. 24 h, 32° C.; for MIC < 50%: lowest concentration with growth less than 50% of control; for MLC: minimum lethal concentration, absence of growth on agar
Description: as §1, §2

Escherichia coli = assay: as above; assay type: cell-based; settings: Escherichia coli (Gram neg bacteria); for MIC < 10%: lowest concentration with growth less than 10% of control; for MIC < 10% / MIC < 50%: approx. 24 h, 32° C.; for MIC < 50%: lowest concentration with growth less than 50% of control; for MLC: minimum lethal concentration, absence of growth on agar
Description: as §1, §2

[1] = Ready Biodegradability - CO2 Evolution Test OECD 301B
Description: The biodegradability of the branched aldehyde intermediates of Example 2 (4-ethyl-2-methyloctanal) and Example 25 (2,4-diethyl-2-octenal) were determined by the Ready Biodegradability—CO2 Evolution Test—Degradation of test compound according to OECD Guidelines for Testing of Chemicals CO2 Evolution Test 301B.

SMILES	MIC < 10% (Candida albicans) [Weight percent]	MIC < 50% (Candida albicans) [Weight percent]	MLC (Candida albicans) [Weight percent]	MIC < 10% (Staphylococcus aureus) [Weight percent]	MIC < 50% (Staphylococcus aureus) [Weight percent]	MLC (Staphylococcus aureus) [Weight percent]	MIC < 10% (Escherichia coli) [Weight percent]	MIC < 50% (Escherichia coli) [Weight percent]	MLC (Escherichia coli) [Weight percent]	Biodegradation (%) ([1]; day 0)	Biodegradation (%) ([1]; day 2)	Biodegradation (%) ([1]; day 6)	Biodegradation (%) ([1]; day 7)	Biodegradation (%) ([1]; day 9)	Biodegradation (%) ([1]; day 14)	Biodegradation (%) ([1]; day 19)	Biodegradation (%) ([1]; day 23)	Biodegradation (%) ([1]; day 28)	Biodegradation (%) ([1]; day 29 (first line))	Biodegradation (%) ([1]; day 29 (second line))
CCCCCCCCCCCC[N+](C)(C)Cc1ccccc1.[Cl-] [BAC-12 linear, benzalkonium chloride, C12]	0.0016	0.00078	0.0016	0.0002	0.0002	0.0002	0.00078	0.00078	0.00078											
CC(=O)[O-].[Na+] [sodium acetate]										0	32	52	54	60	66	69	71	72	74	78
CCCCC(CC)CC(C)C=O (stereo not drawn) [Example 2, 4-ethyl-2-methyloctanal]										0	0	15	21	31	47	54	56	57	57	61
Oc1cc(Cl)ccc1Oc1ccc(Cl)cc1Cl [Triclosan]	0.0016	0.0016	>0.0016	0.00002	0.00002	0.00003	0.00010	0.00010	0.00010											
CCCCC(CC)CC(C=O)CC (stereo not drawn) [Example 25, 2,4-diethyloctanal]										0	0	0	9	27	48	53	53	55	55	57
